Measurements: paper PMC12029836, “Phytotoxicity, Cytotoxicity, and Antimicrobial Activity of Triethanolammonium Amino Acids Salts” (Molecules, 2025)
Values joined by “and” are separate entries in the source; they are usually repeats but may differ in a detail not shown here. Equal values may be shown once. Read-outs that look alike come from different tables or passages of the source.

Key:
E. coli ATCC 8739 = experiment: Antimicrobial activity, broth microdilution MIC/MBC; type: cell-based, Escherichia coli; settings: nd—not detected; for MIC (%): E. coli ATCC 8739, 24 h at 37 °C, at least 90% growth inhibition
[1] = system: Lepidium sativum L. roots; settings: 24 h incubation, mean(±SD), n = 3
S. aureus ATCC 6538 = experiment: Antimicrobial activity, broth microdilution MIC/MBC; type: cell-based, Staphylococcus aureus; settings: nd—not detected
C. albicans ATCC 10231 = experiment: as above; type: cell-based, Candida albicans; settings: C. albicans ATCC 10231, 24 h at 37 °C, at least 90% growth inhibition; nd—not detected
[2] = system: Lepidium sativum L. seeds; settings: 24 h incubation, mean(±SD), n = 3
L929 fibroblasts = experiment: Mammalian cell cytotoxicity screening, resazurin viability; type: cell-based, mouse
[3] = 0.01% (w/w) compound in the medium
[4] = 0.03% (w/w) compound in the medium
[5] = 0.05% (w/w) compound in the medium
[6] = 0.10% (w/w) compound in the medium
[7] = 0.30% (w/w) compound in the medium
[8] = 0.50% (w/w) compound in the medium
[9] = 1.00% (w/w) compound in the medium
[10] = 2.00% (w/w) compound in the medium
[11] = 3.00% (w/w) compound in the medium
[12] = 4.00% (w/w) compound in the medium
[13] = 5.00% (w/w) compound in the medium

SMILES	Inhibition of the root growth in pregerminated Lepidium sativum seeds (IRG, %) [1, 3]	Inhibition of the root growth in pregerminated Lepidium sativum seeds (IRG, %) [1, 4]	Inhibition of the root growth in pregerminated Lepidium sativum seeds (IRG, %) [1, 5]	Inhibition of the root growth in pregerminated Lepidium sativum seeds (IRG, %) [1, 7]	Inhibition of the root growth in pregerminated Lepidium sativum seeds (IRG, %) [1, 8]	Inhibition of the root growth in pregerminated Lepidium sativum seeds (IRG, %) [1, 9]	Inhibition of the root growth in pregerminated Lepidium sativum seeds (IRG, %) [1, 10]	Inhibition of the root growth in pregerminated Lepidium sativum seeds (IRG, %) [1, 11]	Inhibition of the root growth in pregerminated Lepidium sativum seeds (IRG, %) [1, 12]	Inhibition of the root growth in pregerminated Lepidium sativum seeds (IRG, %) [1, 13]	MIC (%) (C. albicans ATCC 10231)	Inhibition of the Lepidium sativum seeds germination (ISG, %) [2, 3]	Inhibition of the Lepidium sativum seeds germination (ISG, %) [2, 4]	Inhibition of the Lepidium sativum seeds germination (ISG, %) [2, 5]	Inhibition of the Lepidium sativum seeds germination (ISG, %) [2, 6]	Inhibition of the Lepidium sativum seeds germination (ISG, %) [2, 7]	Inhibition of the Lepidium sativum seeds germination (ISG, %) [2, 8]	Inhibition of the Lepidium sativum seeds germination (ISG, %) [2, 9]	Inhibition of the Lepidium sativum seeds germination (ISG, %) [2, 10]	Inhibition of the Lepidium sativum seeds germination (ISG, %) [2, 12]	further results
N=C(N)NCCC[C@H](N)C(=O)O.OCCN(CCO)CCO [[TEA][Arg]]	9.0(±1.9) %	20.6(±1.8) %	31.2(±1.9) %	53.8(±1.3) %	56.5(±1.4) %	65.4(±1.0) %	74.4(±0.7) %	84.7(±0.6) %	93.7(±0.5) %	98.3(±0.3) %	0.94	0.0(±0.0) %	0.0(±0.0) %	0.0(±0.0) %	0.0(±0.0) %	1.2(±0.8) %	5.5(±0.5) %	15.5(±0.5) %	25.5(±2.1) %	58.2(±1.2) %	MIC (%) (E. coli ATCC 8739): 3.75%; MBC (%) (E. coli ATCC 8739; E. coli ATCC 8739): 3.75%; Inhibition of the root growth in pregerminated Lepidium sativum seeds (IRG, %) [1, 6]: 41.9(±1.3) %; MIC (%) (S. aureus ATCC 6538; S. aureus ATCC 6538, 24 h at 37 °C, at least 90% growth inhibition): 3.75%; MBC (%) (S. aureus ATCC 6538; S. aureus ATCC 6538): 3.75%; Inhibition of the Lepidium sativum seeds germination (ISG, %) [2, 11]: 32.7%
N[C@@H](Cc1c[nH]cn1)C(=O)O.OCCN(CCO)CCO [[TEA][His]]	1.1(±2.2) %	12.9(±2.1) %	15.7(±2.2) %	28.6%	37.1(±2.0) %	48.6(±1.6) %	62.9(±1.2) %	72.9(±0.9) %	80.0(±0.8) %	84.3(±0.7) %	2.50	0.0(±0.0) %	1.9(±0.5) %	3.7(±0.9) %	5.6(±0.5) %	7.4(±0.5) %	9.3(±0.5) %	12.0(±1.4) %	14.8(±0.9) %	27.8(±2.8) %	Inhibition of the root growth in pregerminated Lepidium sativum seeds (IRG, %) [1, 6]: 22.1(±2.1) %; Inhibition of the Lepidium sativum seeds germination (ISG, %) [2, 11]: 25.9(±1.2) %; Inhibition of the Lepidium sativum seeds germination (ISG, %) [2, 13]: 74.1(±0.5) %
CSCC[C@H](N)C(=O)O.OCCN(CCO)CCO [[TEA][Met]]	0.0(±0.0) %	0.0(±0.0) %	0.0(±0.0) %	22.8(±3.3) %	30.1(±3.8) %	52.1(±2.2) %	60.7(±2.0) %	64.9(±1.4) %	77.4(±1.3) %	77.8(±0.9) %	5.00	0.0(±0.2) %	0.0(±0.1) %	0.0(±0.1) %	0.0(±0.1) %	0.0(±0.0) %	1.9(±1.3) %	3.7(±0.5) %	7.4(±0.9) %	29.6(±0.8) %	ED20 (L929 fibroblasts; 24h exposure): 0.08±0.01%; ED50 (L929 fibroblasts; 24h exposure): 0.29±0.02% and 0.29%; ED80 (L929 fibroblasts; 24h exposure): 0.74±0.08%; ED20 (L929 fibroblasts; 48h exposure): 0.09±0.01%; ED50 (L929 fibroblasts; 48h exposure): 0.31±0.02%; ED80 (L929 fibroblasts; 48h exposure): 0.78±0.06%; Inhibition of the Lepidium sativum seeds germination (ISG, %) [2, 13]: 37.0(±2.5) %
CC(O)C(N)C(=O)O.OCCN(CCO)CCO [[TEA][Thr]]	0.0(±0.0) %	17.7(±2.3) %	19.7(±2.4) %	37.8%	66.6(±1.3) %	73.7(±1.0) %	80.3(±0.9) %	88.0(±0.8) %	92.7(±0.6) %	96.2(±0.5) %	3.75	0.0(±0.0) %	3.8(±0.1) %	6.7(±0.8) %	11.3(±1.7) %	15.1(±0.8) %	16.8(±0.9) %	18.9(±1.7) %	21.7(±0.8) %	45.3(±2.1) %	MIC (%) (E. coli ATCC 8739): 7.50%; Inhibition of the root growth in pregerminated Lepidium sativum seeds (IRG, %) [1, 6]: 21.8(±1.9) %; ED20 (L929 fibroblasts; 24h exposure): 0.40±0.09%; ED50 (L929 fibroblasts; 24h exposure): 0.57±0.03%; ED80 (L929 fibroblasts; 24h exposure): 0.73±0.14%; ED20 (L929 fibroblasts; 48h exposure): 0.26±0.03%; ED50 (L929 fibroblasts; 48h exposure): 0.38±0.02%; ED80 (L929 fibroblasts; 48h exposure): 0.50±0.03%
